# ChEMBL document CHEMBL3259605, “Improving the Pharmacokinetics of GPR40/FFA1 Full Agonists” (ACS Med Chem Lett, 2014)
# Calls of active or inactive are those of the source. The rule behind the calls is not given here.
# Key:
# [1] = target: T1, Free fatty acid receptor 1 (Homo sapiens, UniProt O14842); test: Agonist activity at GPR40 (unknown origin) expressed in CHO cells assessed as luminescence for 20 seconds interval by aequorin assay in presence of 0.01% human serum albumin; assay type: cell-based
# T1 sequence (O14842 whole entry): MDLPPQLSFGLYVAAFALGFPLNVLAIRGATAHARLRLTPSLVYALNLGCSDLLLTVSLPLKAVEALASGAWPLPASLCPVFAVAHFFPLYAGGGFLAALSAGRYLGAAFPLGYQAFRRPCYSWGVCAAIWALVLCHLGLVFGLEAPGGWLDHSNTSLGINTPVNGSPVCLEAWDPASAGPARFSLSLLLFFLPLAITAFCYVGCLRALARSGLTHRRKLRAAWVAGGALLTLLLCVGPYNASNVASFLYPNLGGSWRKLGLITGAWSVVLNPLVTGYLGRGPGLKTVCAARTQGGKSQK
# [2] = target: T1, Free fatty acid receptor 1; test: Agonist activity at GPR40 (unknown origin) expressed in CHO cells assessed as luminescence for 20 seconds interval by aequorin assay in presence of 0.01% human serum albumin relative to AM-1638; assay type: cell-based
# [3] = Clearance in rat at 0.5 mg/kg, iv; assay type: ADME, organism-based; set-up: dose 0.5 mg/kg, route intravenous; conditions: in vivo
# [4] = Half life in rat at 0.5 mg/kg, iv; assay type: ADME, organism-based; set-up: dose 0.5 mg/kg, route intravenous; conditions: in vivo
# [5] = target: T1, Free fatty acid receptor 1; test: Agonist activity at GPR40 (unknown origin) expressed in mouse A9 cells assessed as inositol phosphate accumulation using [myo-3H]inositol after 1 hr by scintillation counting in presence of 0.3% human serum albumin; assay type: functional, cell-based
# [6] = target: T1, Free fatty acid receptor 1; test: Agonist activity at GPR40 (unknown origin) expressed in mouse A9 cells assessed as inositol phosphate accumulation using [myo-3H]inositol after 1 hr by scintillation counting in presence of 0.3% human serum albumin relative to AM-1638; assay type: functional, cell-based
# [7] = Oral bioavailability in rat at 2 mg/kg; assay type: ADME, organism-based; conditions: in vivo
# [8] = Intrinsic clearance in human liver microsomes at 1 uM after 30 mins; assay type: ADME; conditions: read-out: CLH
# [9] = Intrinsic clearance in rat liver microsomes at 1 uM after 30 mins; assay type: ADME; conditions: read-out: CLH
# Mus musculus [10] = test: Antidiabetic activity in diet-induced obesity BDF1 mouse model assessed as reduction of blood glucose level at 0.3 mg/kg, po up to 120 mins by oral glucose tolerance test; assay type: functional, organism-based; set-up: dose 0.3 mg/kg
# Mus musculus [11] = test: Antidiabetic activity in diet-induced obesity BDF1 mouse model assessed as reduction of blood glucose level at 3 mg/kg, po up to 120 mins by oral glucose tolerance test; assay type: functional, organism-based; set-up: dose 3 mg/kg
# Mus musculus [12] = test: Antidiabetic activity in diet-induced obesity BDF1 mouse model assessed as reduction of blood glucose level at 3 to 10 mg/kg, po up to 120 mins by oral glucose tolerance test; assay type: functional, organism-based
# Mus musculus [13] = test: Antidiabetic activity in diet-induced obesity BDF1 mouse model assessed as reduction of blood glucose level at 30 mg/kg, po up to 120 mins by oral glucose tolerance test; assay type: functional, organism-based; set-up: dose 30 mg/kg
# Mus musculus [14] = test: Antidiabetic activity in po dosed high fat fed C57/Bl6 mouse streptozotocin-induced type 2 diabetic model assessed as reduction of blood glucose level up to 120 mins by oral glucose tolerance test; assay type: functional, organism-based
# Mus musculus [15] = test: Antidiabetic activity in high fat fed C57/Bl6 mouse streptozotocin-induced type 2 diabetic model assessed as reduction of blood glucose level at 30 mg/kg, po up to 120 mins by oral glucose tolerance test; assay type: functional, organism-based; set-up: dose 30 mg/kg
# Mus musculus [16] = test: Induction of GLP-1 release in po dosed high fat fed C57/Bl6 mouse streptozotocin-induced type 2 diabetic model; assay type: functional, organism-based
# Mus musculus [17] = test: Antidiabetic activity in high fat fed C57/Bl6 mouse streptozotocin-induced type 2 diabetic model assessed as reduction of blood glucose level at 60 mg/kg, po up to 120 mins by oral glucose tolerance test; assay type: functional, organism-based; set-up: dose 60 mg/kg
Structure (SMILES),EC50 [1],Emax [2],clearance [3],half-life [4],EC50 [5],Emax [6],bioavailability [7],also measured
COc1cc(-c2ccc(COc3ccc4c(c3)[C@@](C)(CC(=O)O)CC4)cc2[C@H](OC)C(C)(C)C)c(F)cn1,235 nM,106%,4.17 mL/min/kg,240 min,6.7 nM,101%,21%,–
COc1cc(-c2ccc(COc3cc4c(cn3)CC[C@]43C[C@H]3C(=O)O)cc2[C@H](OC)C(C)(C)C)c(F)cn1,250 nM,85%,28.3 mL/min/kg,72 min,370 nM,122%,–,–
CCC[C@H](CC(=O)O)c1cccc(OCc2ccc(-c3cccc(OC)n3)c(C(C)(C)C)c2)c1,3700 nM,61%,–,–,–,–,–,–
CCC[C@H](CC(=O)O)c1cccc(OCc2ccc(-c3cccc(OC)c3)c(C(C)(C)C)c2)c1,370 nM,94%,–,–,–,–,–,–
COc1ccc(F)c(-c2ccc(COc3cccc([C@@H](CC(=O)O)C4CC4)c3)cc2[C@@H]2OCCCC2(C)C)c1,227 nM,96%,–,–,–,–,–,–
COc1cc(-c2ccc(COc3cc([C@@H](CC(=O)O)C4CC4)ccn3)cc2[C@H](OC)C(C)(C)C)c(F)cn1,162 nM,94%,1.02 mL/min/kg,486 min,0.6 nM,100%,54%,Activity (Mus musculus [10]): Active; Activity (Mus musculus [11]): Active; Activity (Mus musculus [12]): Active
COc1cc(-c2ccc(COc3cc([C@H](C)CC(=O)O)ccn3)cc2[C@@H]2CCCC2(C)C)c(F)cn1,281 nM,136%,–,–,19 nM,100%,–,–
COc1cc(-c2ccc(COc3cc4c(cn3)CC[C@]43C[C@H]3C(=O)O)cc2[C@@H]2CCCC2(C)C)c(F)cn1,249 nM,98%,4.33 mL/min/kg,216 min,22 nM,97%,58%,–
CCC[C@H](CC(=O)O)c1cccc(OCc2ccc(-c3cncc(OC)c3)c(C(C)(C)C)c2)c1,30000 nM,72%,–,–,–,–,–,–
COc1ccc(F)c(-c2ccc(COc3cccc([C@@H](CC(=O)O)C4CC4)c3)cc2C2=CCCC2(C)C)c1,–,–,–,–,–,–,–,Activity (Mus musculus [17]): Active
COc1ccc(F)c(-c2ccc(COc3cccc([C@@H](CC(=O)O)C4CC4)c3)cc2[C@@H](OC)C(C)(C)C)c1,1410 nM,98%,–,–,–,–,–,–
CC[C@H](CC(=O)O)c1ccnc(OCc2ccc(-c3cc(OC)ncc3F)c([C@@H]3CCCC3(C)C)c2)c1,150 nM,99%,2.5 mL/min/kg,492 min,6 nM,102%,83%,–

# Further lines, with some results ahead:
EC50 [1],Emax [2],clearance [3],half-life [4],EC50 [5],Emax [6],bioavailability [7],Structure (SMILES),also measured
147 nM,105%,4.67 mL/min/kg,210 min,–,–,–,COc1ccc(F)c(-c2ccc(COc3cccc([C@@H](CC(=O)O)C4CC4)c3)cc2[C@H](OC)C(C)(C)C)c1,–
76 nM,101%,11.7 mL/min/kg,120 min,–,–,34%,COc1ccc(F)c(-c2ccc(COc3cccc([C@@H](CC(=O)O)C4CC4)c3)cc2[C@@H]2CCCC2(C)C)c1,microsomal CLint at 1 µM [8]: 52 µL/min/mg; microsomal CLint at 1 µM [9]: 219 µL/min/mg
114 nM,101%,5.33 mL/min/kg,234 min,–,–,–,CCO[C@@H](c1cc(COc2cccc([C@@H](CC(=O)O)C3CC3)c2)ccc1-c1cc(OC)ccc1F)C(C)(C)C,–
93 nM,102%,2.83 mL/min/kg,276 min,–,–,98%,COc1cc(-c2ccc(COc3cccc([C@@H](CC(=O)O)C4CC4)c3F)cc2[C@@H]2CCCC2(C)C)c(F)cn1,Activity (Mus musculus [13]): Active; microsomal CLint at 1 µM [8]: 15 µL/min/mg; microsomal CLint at 1 µM [9]: 52 µL/min/mg; Activity (Mus musculus [14]): Dose-dependent effect; Activity (Mus musculus [15]): Active; Activity (Mus musculus [16]): Dose-dependent effect
128 nM,100%,7.5 mL/min/kg,222 min,3.4 nM,100%,10%,COc1cc(-c2ccc(COc3ccc4c(c3)[C@@](C)(CC(=O)O)CC4)cc2[C@@H]2CCCC2(C)C)c(F)cn1,–
105 nM,100%,–,–,–,–,–,COc1ccc(F)c(-c2ccc(COc3cccc([C@@H](CC(=O)O)C4CC4)c3)cc2[C@H](F)C(C)(C)C)c1,–
120 nM,100%,–,–,–,–,–,COc1cc(-c2ccc(COc3cccc([C@@H](CC(=O)O)C4CC4)c3)cc2C2=CCCC2(C)C)c(F)cn1,–
108 nM,110%,1.43 mL/min/kg,582 min,1.7 nM,100%,37%,COc1cc(-c2ccc(COc3cc([C@@H](CC(=O)O)C4CC4)ccn3)cc2[C@@H]2CCCC2(C)C)c(F)cn1,–
88 nM,102%,20 mL/min/kg,72 min,–,–,–,COc1ccc(F)c(-c2ccc(COc3cccc([C@@H](CC(=O)O)C4CC4)c3)cc2CC(C)(C)C)c1,–
68 nM,95%,1.67 mL/min/kg,210 min,–,–,34%,COc1cc(-c2ccc(COc3cccc([C@@H](CC(=O)O)C4CC4)c3)cc2[C@@H]2CCCC2(C)C)c(F)cn1,microsomal CLint at 1 µM [8]: 21 µL/min/mg; microsomal CLint at 1 µM [9]: 67 µL/min/mg
